The record followed here is patent publication US11542255B2, “Sulfonylureas and sulfonylthioureas as NLRP3 inhibitors” (Inflazome Limited, priority 2017, dated 2023).

The structures appear in SMILES notation. Where a name gives a salt, the structure may show the parent alone.

For the first assay, the target named is T1, NLRP3 (Homo sapiens, UniProt Q96P20). Put plainly: THP-1 cells pyroptosis assay (LPS + nigericin, resazurin readout). The class given is cell-based. Also noted: Seed THP-1 cells (25,000 cells/well) containing 1.0 μg/ml LPS in 40 μl of RPMI medium; host or cells: THP-1 cells. To be noted: NLRP3 inhibitory activity, 1.0 μg/ml LPS, 5 μM nigericin. The procedure: THP-1 cells (ATCC #TIB-202) were grown in RPMI containing L-glutamine (Gibco #11835) supplemented with 1 mM sodium pyruvate (Sigma #S8636) and penicillin (100 units/ml)/streptomycin (0.1 mg/ml) (Sigma #P4333) in 10% Fetal Bovine Serum (FBS) (Sigma #F0804). The cells were routinely passaged and grown to confluency (˜10^6 cells/ml). On the day of the experiment, THP-1 cells were harvested and resuspended into RPMI medium (without FBS). The cells were then counted and viability (>90%) checked by Trypan blue (Sigma #T8154). Appropriate dilutions were made to give a concentration of 625,000 cells/ml. To this diluted cell solution was added LPS (Sigma #L4524) to give a […] Final Assay Concentration (FAC). 40 μl of the final preparation was aliquoted into each well of a 96-well plate. The plate thus prepared was used for compound screening.
T1 sequence (Q96P20 whole entry): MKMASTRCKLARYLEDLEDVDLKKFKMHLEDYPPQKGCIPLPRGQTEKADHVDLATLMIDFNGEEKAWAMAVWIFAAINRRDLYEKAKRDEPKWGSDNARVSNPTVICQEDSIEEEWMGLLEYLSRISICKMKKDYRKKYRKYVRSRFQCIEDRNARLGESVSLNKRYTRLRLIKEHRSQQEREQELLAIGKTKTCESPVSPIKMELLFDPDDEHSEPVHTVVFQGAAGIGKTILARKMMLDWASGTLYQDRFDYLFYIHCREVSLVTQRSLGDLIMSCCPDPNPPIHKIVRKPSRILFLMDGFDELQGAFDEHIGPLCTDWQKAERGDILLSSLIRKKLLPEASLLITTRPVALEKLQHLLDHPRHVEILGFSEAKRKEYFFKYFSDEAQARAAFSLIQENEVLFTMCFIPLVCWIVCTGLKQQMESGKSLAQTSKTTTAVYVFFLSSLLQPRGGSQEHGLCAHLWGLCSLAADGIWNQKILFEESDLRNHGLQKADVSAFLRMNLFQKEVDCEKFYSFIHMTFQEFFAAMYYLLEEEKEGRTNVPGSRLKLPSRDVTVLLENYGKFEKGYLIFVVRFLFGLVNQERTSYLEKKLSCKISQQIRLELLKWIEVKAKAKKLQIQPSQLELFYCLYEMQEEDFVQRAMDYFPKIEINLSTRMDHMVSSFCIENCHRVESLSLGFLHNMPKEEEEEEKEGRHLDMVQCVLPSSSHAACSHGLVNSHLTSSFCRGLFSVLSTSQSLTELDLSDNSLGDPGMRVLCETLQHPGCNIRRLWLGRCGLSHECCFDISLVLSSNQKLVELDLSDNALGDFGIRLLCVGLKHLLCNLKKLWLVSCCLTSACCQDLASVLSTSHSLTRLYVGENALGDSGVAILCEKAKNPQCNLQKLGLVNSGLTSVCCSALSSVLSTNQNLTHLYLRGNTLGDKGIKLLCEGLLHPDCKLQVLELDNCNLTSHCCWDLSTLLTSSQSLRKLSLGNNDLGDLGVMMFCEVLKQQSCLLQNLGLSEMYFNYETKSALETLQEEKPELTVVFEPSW
The following method step-by-step assay was followed for compound screening. • 1. Seed THP-1 cells (25,000 cells/well) containing 1.0 μg/ml LPS in 40 μl of RPMI medium (without FBS) in 96-well, black walled, clear bottom cell culture plates coated with poly-D-lysine (VWR #734-0317) • 2. Add 5 μl compound (8 points half-log dilution, with 10 μM top dose) or vehicle (DMSO 0.1% FAC) to the appropriate wells • 3. Incubate for 3 hrs at 37° C. in 5% CO2 • 4. Add 5 μl nigericin (Sigma #N7143) (FAC 5 μM) to all wells • 5. Incubate for 1 hr at 37° C. and 5% CO2 • 6. At the end of the incubation period, spin plates at 300×g for 3 mins and remove supernatant • 7. Then add 50 μl of resazurin (Sigma #R7017) (FAC 100 μM resazurin in RPMI medium without FBS) and incubate plates for a further 1-2 hrs at 37° C. and 5% CO2 • 8. Plates were read in an Envision reader at Ex 560 nm and Em 590 nm • 9. IC50 data is fitted to a non-linear regression equation (log inhibitor vs response-variable slope 4-parameters)
In general, IC50 refers to the concentration needed to halve the response being measured. On to `CC(c1cc(S(=O)(=O)NC(=O)Nc2c3c(cc4c2CCC4)CCC3)nn1C)N1CCC1` (single isomer, unassigned; enantiomer 1) [Example 26, 5-(1-(Azetidin-1-yl)ethyl)-N-((1,2,3,5,6,7-hexahydro-s-indacen-4-yl)carbamoyl)-1-methyl-1H-pyrazole-3-sulfonamide, Sodium Salt (Enantiomer 1)], for which the half-maximal inhibitory concentration (IC50) lay within 40 to 160 nM.

Consider `CCC(c1cc(S(=O)(=O)NC(=O)Nc2c3c(cc4c2CCC4)CCC3)nn1C)N(C)C` (single isomer, unassigned; enantiomer 1) [Example 71, 5-(1-(Dimethylamino)propyl)-N-((1,2,3,5,6,7-hexahydro-s-indacen-4-yl)carbamoyl)-1-methyl-1H-pyrazole-3-sulfonamide, Enantiomer 1], for which the 50% inhibitory concentration (IC50) is under 40 nM.

Turning to `CNCCn1nc(S(=O)(=O)NC(=O)Nc2c3c(cc4c2CCC4)CCC3)cc1C(=O)O` [Example 2, 3-(N-((1,2,3,5,6,7-Hexahydro-s-indacen-4-yl)carbamoyl)sulfamoyl)-1-(2-(methylamino)ethyl)-1H-pyrazole-5-carboxylic Acid], the half-inhibitory concentration (IC50) fell in the range of 2560 to 10000 nM.

In the case of `CN1CC(N(C)Cc2cc(S(=O)(=O)NC(=O)Nc3c4c(cc5c3CCC5)CCC4)nn2C)C1` [Example 8, N-((1,2,3,5,6,7-Hexahydro-s-indacen-4-yl)carbamoyl)-1-methyl-5-((methyl(1-methylazetidin-3-yl)amino)methyl)-1H-pyrazole-3-sulfonamide, Sodium Salt], the IC50 fell in the range of 160 to 640 nM.

For `CC(C)c1cc(F)cc(C(C)C)c1NC(=O)NS(=O)(=O)c1cc(CN(C)C2CN(C)C2)n(C)n1` [Example 9, N-((4-Fluoro-2,6-diisopropylphenyl)carbamoyl)-1-methyl-5-((methyl(1-methylazetidin-3-yl)amino)methyl)-1H-pyrazole-3-sulfonamide, Sodium Salt], the IC50 fell in the range of 2560 to 10000 nM.

Turning to `CCn1nc(S(=O)(=O)NC(=O)Nc2c(Br)ccc3c2CCC3)cc1CN(C)C` [Example 16, N-((5-Bromo-2,3-dihydro-1H-inden-4-yl)carbamoyl)-5-((dimethylamino)methyl)-1-ethyl-1H-pyrazole-3-sulfonamide], the concentration for half-maximal inhibition (IC50) is 640 to 2560 nM.

On to `CC(C)n1nc(S(=O)(=O)[N-]C(=O)Nc2c3c(cc4c2CCC4)CCC3)cc1C(C)[N+](C)(C)C` (centres unmarked) [Example 18, ((1,2,3,5,6,7-Hexahydro-s-indacen-4-yl)carbamoyl)((1-isopropyl-5-(1-(trimethylammonio)ethyl)-1H-pyrazol-3-yl)sulfonyl)amide], for which the half-inhibitory concentration (IC50) lay within 640 to 2560 nM.

For the molecule `CC(c1cc(S(=O)(=O)[N-]C(=O)Nc2c3c(cc4c2CCC4)CCC3)nn1C)[N+](C)(C)C` (centres unmarked) [Example 19, ((1,2,3,5,6,7-Hexahydro-s-indacen-4-yl)carbamoyl)((1-methyl-5-(1-(trimethylammonio)ethyl)-1H-pyrazol-3-yl)sulfonyl)amide], the IC50 fell in the range of 640 to 2560 nM.

In the case of `CC(C)c1cc(F)cc(-c2ccnc(C(N)=O)c2)c1NC(=O)NS(=O)(=O)c1cc(CN(C)C)n(C)n1` [Example 28, 4-(2-(3-((5-((Dimethylamino)methyl)-1-methyl-1H-pyrazol-3-yl)sulfonyl)ureido)-5-fluoro-3-isopropylphenyl)picolinamide], the 50% inhibitory concentration (IC50) was in the range of 640 to 2560 nM.

In the case of `CC(C)c1cc(F)cc(-c2cncnc2)c1NC(=O)NS(=O)(=O)c1cc(CN(C)C)n(C(C)C)n1` [Example 42, 5-((Dimethylamino)methyl)-N-((4-fluoro-2-isopropyl-6-(pyrimidin-5-yl)phenyl)carbamoyl)-1-isopropyl-1H-pyrazole-3-sulfonamide], the IC50 lay within 640 to 2560 nM.

Take `CC(C)c1cc(F)cc(-c2cncnc2)c1NC(=O)NS(=O)(=O)c1cc(CN(C)C)n(C)n1` [Example 43, 5-((Dimethylamino)methyl)-N-((4-fluoro-2-isopropyl-6-(pyrimidin-5-yl)phenyl)carbamoyl)-1-methyl-1H-pyrazole-3-sulfonamide]: the concentration for half-maximal inhibition (IC50) lay in the range of 640 to 2560 nM.

On to `CC(C)c1cc(F)cc(C(C)C)c1NC(=O)NS(=O)(=O)c1cc(CN(C)C)n(C(C)C)n1` [Example 61, 5-((Dimethylamino)methyl)-N-((4-fluoro-2,6-diisopropylphenyl)carbamoyl)-1-isopropyl-1H-pyrazole-3-sulfonamide], for which the half-maximal inhibitory concentration (IC50) fell in the range of 160 to 640 nM.

As for `CN(Cc1cc(S(=O)(=O)NC(=O)Nc2c3c(cc4c2CCC4)CCC3)nn1C)C1CC1` [Example 85, 5-((Cyclopropyl(methyl)amino)methyl)-N-((1,2,3,5,6,7-hexahydro-s-indacen-4-yl)carbamoyl)-1-methyl-1H-pyrazole-3-sulfonamide, Sodium Salt], the IC50 was 160 to 640 nM.

Turning to `CC(C)c1cc(F)cc(C(C)C)c1NC(=O)NS(=O)(=O)c1cc(CN(C)C2CC2)n(C)n1` [Example 87, 5-((Cyclopropyl(methyl)amino)methyl)-N-((4-fluoro-2,6-diisopropylphenyl)carbamoyl)-1-methyl-1H-pyrazole-3-sulfonamide, sodium Salt], the IC50 lay in the range of 640 to 2560 nM.

In the case of `CN(Cc1cc(S(=O)(=O)NC(=O)Nc2c3c(cc4c2CCC4)CCC3)nn1C)CC(F)(F)F` [Example 97, N-((1,2,3,5,6,7-Hexahydro-s-indacen-4-yl)carbamoyl)-1-methyl-5-((methyl(2,2,2-trifluoroethyl)amino)methyl)-1H-pyrazole-3-sulfonamide, Sodium Salt], the half-maximal inhibitory concentration (IC50) lay within 160 to 640 nM.

Regarding `COCCN(C)Cc1cc(S(=O)(=O)NC(=O)Nc2c(C(C)C)cc(F)cc2C(C)C)nn1C` [Example 118, N-((4-Fluoro-2,6-diisopropylphenyl)carbamoyl)-5-(((2-methoxyethyl)(methyl)amino)methyl)-1-methyl-1H-pyrazole-3-sulfonamide, Sodium Salt], the half-inhibitory concentration (IC50) was 640 to 2560 nM.

On to `CC(C)c1cc(Cl)cc(C(C)C)c1NC(=O)NS(=O)(=O)c1cc(CN2CCOCC2)n(C)n1` [Example 120, N-((4-Chloro-2,6-diisopropylphenyl)carbamoyl)-1-methyl-5-(morpholinomethyl)-1H-pyrazole-3-sulfonamide, Sodium Salt], for which the half-inhibitory concentration (IC50) lay within 640 to 2560 nM.

For the molecule `Cn1nc(S(=O)(=O)NC(=O)Nc2c3c(cc4c2CCC4)CCC3)cc1CN1CCOCC1` [Example 121, N-((1,2,3,5,6,7-Hexahydro-s-indacen-4-yl)carbamoyl)-1-methyl-5-(morpholinomethyl)-1H-pyrazole-3-sulfonamide], the 50% inhibitory concentration (IC50) is 640 to 2560 nM.

For the molecule `CC(C)c1cc(Cl)cc(C(C)C)c1NC(=O)NS(=O)(=O)c1cc(C(=O)N(C)CC#N)n(C)n1` [Example 130, 3-(N-((4-Chloro-2,6-diisopropylphenyl)carbamoyl)sulfamoyl)-N-(cyanomethyl)-N,1-dimethyl-1H-pyrazole-5-carboxamide], the IC50 was in the range of 640 to 2560 nM.

With `CN(C)Cc1nc(S(=O)(=O)NC(=O)Nc2c3c(cc4c2CCC4)CCC3)cn1C` [Example 167, 2-((Dimethylamino)methyl)-N-((1,2,3,5,6,7-hexahydro-s-indacen-4-yl)carbamoyl)-1-methyl-1H-imidazole-4-sulfonamide], the half-inhibitory concentration (IC50) was 2560 to 10000 nM.

Regarding `CCn1nc(S(=O)(=O)NC(=O)Nc2c(-c3cccc(OC)c3)ccc3c2CCC3)cc1CN(C)C` [Example 182], the IC50 lay in the range of 640 to 2560 nM.

In a further assay the target is T1, NLRP3. Description: Human whole blood IL1β release assay (LPS + nigericin, AlphaLisa IL-1β). The class given is cell-based. Further details: Human whole blood in Li-heparin tubes was obtained from healthy donors from a volunteer donor panel; from tissue; host or cells: human whole blood from healthy donors. To be noted: NLRP3 inhibitory activity, 1 μg/ml LPS, 10 μM nigericin, IL-1β release, read-out: HWB IC50. The procedure:
For systemic delivery, the ability to inhibit NLRP3 when the compounds are present within the bloodstream is of great importance. For this reason, the NLRP3 inhibitory activity of a number of compounds in human whole blood was investigated in accordance with the following protocol.
Human whole blood in Li-heparin tubes was obtained from healthy donors from a volunteer donor panel. • 1. Plate out 80 μl of whole blood containing 1 μg/ml of LPS in 96-well, clear bottom cell culture plate (Corning #3585) • 2. Add 10 μl compound (8 points half-log dilution with 10 μM top dose) or vehicle (DMSO 0.1% FAC) to the appropriate wells • 3. Incubate for 3 hrs at 37° C., 5% CO2 • 4. Add 10 μl Nigericin (Sigma #N7143) (10 μM FAC) to all wells • 5. Incubate for 1 hr at 37° C., 5% CO2 • 6. At the end of the incubation period, spin plates at 300×g for 5 mins to pellet cells and remove 20 μl of supernatant and add to 96-well v-bottom plates for IL-1β analysis (note: these plates containing the supernatants can be stored at −80° C. to be analysed at a later date) • 7. IL-1β was measured according to the manufacturer protocol (Perkin Elmer-AlphaLisa IL-1β Kit AL220F-5000) • 8. IC50 data is fitted to a non-linear regression equation (log inhibitor vs response-variable slope 4-parameters)
(In general: In Alpha technology, singlet oxygen from a donor bead excites a nearby acceptor bead.)
For the molecule `CC(c1cc(S(=O)(=O)NC(=O)Nc2c3c(cc4c2CCC4)CCC3)nn1C)N1CCC1` (single isomer, unassigned; enantiomer 1) [Example 26, 5-(1-(Azetidin-1-yl)ethyl)-N-((1,2,3,5,6,7-hexahydro-s-indacen-4-yl)carbamoyl)-1-methyl-1H-pyrazole-3-sulfonamide, Sodium Salt (Enantiomer 1)], the IC50 is under 400 nM.

On to `CCC(c1cc(S(=O)(=O)NC(=O)Nc2c3c(cc4c2CCC4)CCC3)nn1C)N(C)C` (single isomer, unassigned; enantiomer 1) [Example 71, 5-(1-(Dimethylamino)propyl)-N-((1,2,3,5,6,7-hexahydro-s-indacen-4-yl)carbamoyl)-1-methyl-1H-pyrazole-3-sulfonamide, Enantiomer 1], for which the IC50 is under 400 nM.
